Like-named read-outs stand apart in the source and are kept apart here.

The target of assay [1] is HCV NS3/4A protease genotype 3a (Hepatitis C virus genotype 3a, UniProt Q81495). In words: HCV NS3/4A protease time-resolved fluorescence (TRF) assay, Ki against genotype 3a. The class given is biochemical. As for the experimental part: (§1) Measuring NS3/4A Inhibitory Activity (Ki) Against Genotype 1b, Against A156T Mutants and Against Genotype 3a
(§2) One assay for measuring inhibitory activity is HCV NS3 protease time-resolved fluorescence (TRF) assay as described below and in Mao et al., Anal. Biochem. 373:1-8, 2008 and International Patent Application Publication WO 2006/102087. A NS3 protease assay can be performed, for example, in a final volume of 20 μl assay buffer containing 50 mM HEPES, pH 7.5, 150 mM NaCl, 15% glycerol, 0.15% TRITON X-100, 10 mM DTT, and 0.1% PEG 8000. NS3 and NS4A protease is pre-incubated with various concentrations of inhibitors in DMSO for 30 min. The reaction is initiated by adding the TRF peptide substrate (final concentration 25 nM). NS3 mediated hydrolysis of the substrate was run for 2.5 hours at room temperature. Product fluorescence is detected using A Pherastar Plus plate reader (BMG) or Envision (Perkin Elmer Life and Analytical Sciences with excitation at 340 nm and emission at 615 nm using the appropriate delay time optimized for the europium fluorescence probe. Testing concentrations of different enzyme forms are selected to result in a signal to background ratio (S/B) of 10-30. IC50 values are derived using a standard four-parameter fit to the data. Ki values are derived from IC50 values using the following formula, IC50=Ki(1+[S]/KM), Eqn (1), where [S] is the concentration of substrate peptide in the reaction and KM is the Michaelis constant. See P. Gallinari et al., 38 BIOCHEM. 5620-32 (1999); P. Gallinari et al., 72 J. VIROL. 6758-69 (1998); M. Taliani et al., 240 ANAL. BIOCHEM. 60-67 (1996); Mao et al., Analytical Biochemistry 373: 1-8, 2008.
(§3) The assay described above was run against genotype 1b at a concentration of 0.2 nM, against A156T mutant strains at a concentration of 0.4 nM, and against genotype 3a at a concentration of 0.025 nM.

Assay [2] addresses HCV NS3/4A protease A156T mutant (Hepatitis C virus genotype 1b, UniProt P26663, A1182T). As to the kind of experiment: HCV NS3/4A protease time-resolved fluorescence (TRF) assay, Ki against A156T mutant. The class given is biochemical. As to conditions: read-out: IC50 [gt-1b A156T]. The protocol:
as §1, §2, §3

In assay [3] the target is HCV NS3/4A protease genotype 1b (Hepatitis C virus genotype 1b, UniProt P26663). In words: HCV NS3/4A protease time-resolved fluorescence (TRF) assay, Ki against genotype 1b. Type of assay: biochemical. An outline of the steps: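 Time-resolved fluorescence readout of NS3/4A cleavage of 25 nM europium-labelled peptide over 2.5 h at room temperature, enzyme levels set for signal/background 10–30 (0.2, 0.4, 0.025 nM for 1b, A156T, 3a). Ki by IC50=Ki(1+[S]/KM).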

A further assay concerns HCV genotype 1b replicon. As to the kind of experiment: HCV replicon assay, genotype 1b replicon EC50. Type of assay: cell-based, Hepatitis C virus. As to conditions: Hepatitis C virus, read-out: EC50 [gt-1b]. In outline: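 Replicon cells (Neo^r, some luciferase:Neo^r fusion); G418 removed at plating; compound dilution series, 24-48 h. Readout: RNA by 32P-probe hybridization/protection or TaqMan, normalized to cyclophilin A RNA, or luciferase. EC50 vs DMSO control, 4-parameter fit.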
In general terms: In antiviral work, replicon cells carry a viral genome segment that copies itself.

Where [4] appears, read: NS3/4A protease TRF assay, A156T mutant enzyme 0.4 nM, K+ salt.
The mark [5] stands for this setting: IC50 [gt-1b], NS3/4A protease TRF assay, genotype 1b enzyme 0.2 nM, K+ salt.
Where [6] appears, read: HCV replicon, genotype 1b, K+ salt.
The mark [7] stands for this setting: NS3/4A protease TRF assay, A156T mutant enzyme 0.4 nM.
[8] abbreviates: IC50 [gt-1b], NS3/4A protease TRF assay, genotype 1b enzyme 0.2 nM.

As to `COc1ccc2nc(C(F)(F)F)c3c(c2c1)CC[C@]1(C[C@H]2C(=O)N[C@]4(C(=O)NS(=O)(=O)C5(C)CC5)C[C@H]4/C=C\CCCCC[C@H](NC(=O)OCC(C)(C)C)C(=O)N2C1)O3` [Example 382, 2,2-dimethylpropyl [(2R,6S,12Z,13aS,14aR,16aS)-9′-methoxy-14a-{[(1-methylcyclopropyl)sulfonyl]carbamoyl}-5,16-dioxo-5′-(trifluoromethyl)-1,1′,2′,5,6,7,8,9,10,11,13a,14,14a,15,16,16a-hexadecahydrospiro[cyclopropa[e]pyrrolo[1,2-a][1,4]diazacyclopentadecine-2,3′-pyrano[2,3-c]quinolin]-6-yl]carbamate], the values for the IC50 in assay [1], in assay [2] (setting [4]) and in assay [3] (setting [5]) were 1.09 nM, 2.34 nM and 0.028 nM, respectively. In the assay on HCV genotype 1b replicon (setting [6]), the EC50 came to 3.61 nM.

As to `CC(C)(C)COC(=O)N[C@H]1CCCCC/C=C\[C@@H]2C[C@@]2(C(=O)NS(=O)(=O)C2(C)CC2)NC(=O)[C@@H]2C[C@]3(CCc4c(c(C(F)F)nc5ccc(Cl)cc45)O3)CN2C1=O` [Example 369, 2,2-dimethylpropyl [(2R,6S,12Z,13aS,14aR,16aS)-9′-chloro-5′-(difluoromethyl)-14a-{[(1-methylcyclopropyl)sulfonyl]carbamoyl}-5,16-dioxo-1,1′,2′,5,6,7,8,9,10,11,13a,14,14a,15,16,16a-hexadecahydrospiro[cyclopropa[e]pyrrolo[1,2-a][1,4]diazacyclopentadecine-2,3′-pyrano[2,3-c]quinolin]-6-yl]carbamate], the IC50 is 1.18 nM in assay [1], 1.16 nM in assay [2] (setting [7]) and 0.018 nM in assay [3] (setting [8]). In the assay with HCV genotype 1b replicon (HCV replicon, genotype 1b), the EC50 is 15.1 nM.

Consider `Cc1nc2ccccc2c2c1O[C@]1(CC2)C[C@H]2C(=O)N[C@]3(C(=O)NS(=O)(=O)C4(C)CC4)C[C@H]3/C=C\CCCCC[C@H](NC(=O)OC(C)(C)C)C(=O)N2C1` [Example 74, tert-butyl [(2R,6S,12Z,13aS,14aR,16aS)-5′-methyl-14a-{[(1-methylcyclopropyl)sulfonyl]carbamoyl}-5,16-dioxo-1,1′,2′,5,6,7,8,9,10,11,13a,14,14a,15,16,16a-hexadecahydrospiro[cyclopropa[e]pyrrolo[1,2-a][1,4]diazacyclopentadecine-2,3′-pyrano[2,3-c]quinolin]-6-yl]carbamate], for which the IC50 in assay [1] is 0.572 nM; in assay [2] (NS3/4A gt-1b A156T mutant, enzyme 0.4 nM), 0.124 nM; in assay [3] (IC50 [gt-1b] (nM), NS3/4A genotype 1b, enzyme 0.2 nM) it was 0.008 nM. Also, in the assay with HCV genotype 1b replicon (genotype 1b replicon), the EC50 was 2.48 nM.

With `CCc1nc2ccc(OCCN3CCOCC3)cc2c2c1O[C@]1(CC2)C[C@H]2C(=O)N[C@]3(C(=O)NS(=O)(=O)C4(C)CC4)C[C@H]3/C=C\CCCCC[C@H](NC(=O)OCC(C)C)C(=O)N2C1` [Example 515, 2-methylpropyl {(2R,6S,12Z,13aS,14aR,16aS)-5′-ethyl-14a-{[(1-methylcyclopropyl)sulfonyl]carbamoyl}-9′-[2-(morpholin-4-yl)ethoxy]-5,16-dioxo-1,1′,2′,5,6,7,8,9,10,11,13a,14,14a,15,16,16a-hexadecahydrospiro[cyclopropa[e]pyrrolo[1,2-a][1,4]diazacyclopentadecine-2,3′-pyrano[2,3-c]quinolin]-6-yl}carbamate], the IC50 in assay [1] was determined as 0.292 nM; in assay [2] (NS3/4A protease TRF assay, A156T mutant enzyme 0.4 nM, HCl salt), 0.0575 nM; in assay [3] (IC50 [gt-1b], NS3/4A protease TRF assay, genotype 1b enzyme 0.2 nM, HCl salt) it was 0.005 nM. Besides, the concentration giving a half-maximal response (EC50) in the assay with HCV genotype 1b replicon (HCV replicon, genotype 1b, HCl salt) turned out to be 0.503 nM.

For the compound `CC[C@@H](C)OC(=O)N[C@H]1CCCCC/C=C\[C@@H]2C[C@@]2(C(=O)NS(=O)(=O)C2(C)CC2)NC(=O)[C@@H]2C[C@]3(CCc4c(c(C(F)(F)F)nc5ccc(OC)cc45)O3)CN2C1=O` [Example 459, (2R)-butan-2-yl [(2R,6S,12Z,13aS,14aR,16aS)-9′-methoxy-14a-{[(1-methylcyclopropyl)sulfonyl]carbamoyl}-5,16-dioxo-5′-(trifluoromethyl)-1,1′,2′,5,6,7,8,9,10,11,13a,14,14a,15,16,16a-hexadecahydrospiro[cyclopropa[e]pyrrolo[1,2-a][1,4]diazacyclopentadecine-2,3′-pyrano[2,3-c]quinolin]-6-yl]carbamate], the half-maximal inhibitory concentration (IC50) came to 2.31 nM in assay [1], 2.65 nM in assay [2] (setting [4]) and 0.049 nM in assay [3] (setting [5]). Besides, the EC50 with HCV genotype 1b replicon (setting [6]) came out at 4.4 nM.

Take `COc1ccc2nc(C(F)F)c3c(c2n1)CC[C@]1(C[C@H]2C(=O)N[C@]4(C(=O)NS(=O)(=O)C5(C)CC5)C[C@H]4/C=C\CCCCC[C@H](NC(=O)O[C@@H]4C[C@@H]5C[C@@H]5C4)C(=O)N2C1)O3` [Example 524, (1R,3r,5S)-bicyclo[3.1.0]hex-3-yl [(2R,6S,12Z,13aS,14aR,16aS)-6′-(difluoromethyl)-2′-methoxy-14a-{[(1-methylcyclopropyl)sulfonyl]carbamoyl}-5,16-dioxo-1,5,6,7,8,9,9′,10,10′,11,13a,14,14a,15,16,16a-hexadecahydrospiro[cyclopropa[e]pyrrolo[1,2-a][1,4]diazacyclopentadecine-2,8′-pyrano[2,3-c][1,5]naphthyridin]-6-yl]carbamate]: the IC50 in assay [1] was determined as 0.109 nM; in assay [2] (setting [7]) it was 0.182 nM; in assay [3] (setting [8]), 0.003 nM.

For `COc1cc(Cl)c2nc(C(F)(F)F)c3c(c2c1)CC[C@]1(C[C@H]2C(=O)N[C@]4(C(=O)NS(=O)(=O)C5(C)CC5)C[C@H]4/C=C\CCCCC[C@H](NC(=O)OCC(C)C)C(=O)N2C1)O3` [Example 399, 2-methylpropyl [(2R,6S,12Z,13aS,14aR,16aS)-7′-chloro-9′-methoxy-14a-{[(1-methylcyclopropyl)sulfonyl]carbamoyl}-5,16-dioxo-5′-(trifluoromethyl)-1,1′,2′,5,6,7,8,9,10,11,13a,14,14a,15,16,16a-hexadecahydrospiro[cyclopropa[e]pyrrolo[1,2-a][1,4]diazacyclopentadecine-2,3′-pyrano[2,3-c]quinolin]-6-yl]carbamate], the values for the IC50 in assay [1], in assay [2] (setting [7]) and in assay [3] (setting [8]) were 6.45 nM, 1.45 nM and 0.027 nM, respectively.

Turning to `COc1cc(Cl)c2nc(C(F)(F)F)c3c(c2c1)CC[C@]1(C[C@H]2C(=O)N[C@]4(C(=O)NS(=O)(=O)C5(C)CC5)C[C@H]4/C=C\CCCCC[C@H](NC(=O)OC(C)(C)C)C(=O)N2C1)O3` [Example 398, tert-butyl [(2R,6S,12Z,13aS,14aR,16aS)-7′-chloro-9′-methoxy-14a-{[(1-methylcyclopropyl)sulfonyl]carbamoyl}-5,16-dioxo-5′-(trifluoromethyl)-1,1′,2′,5,6,7,8,9,10,11,13a,14,14a,15,16,16a-hexadecahydrospiro[cyclopropa[e]pyrrolo[1,2-a][1,4]diazacyclopentadecine-2,3′-pyrano[2,3-c]quinolin]-6-yl]carbamate], the IC50 turned out to be 2.35 nM in assay [1], 0.496 nM in assay [2] (setting [7]) and 0.025 nM in assay [3] (setting [8]).

Usually IC50 stands for the concentration that inhibits the measured activity by half. The term EC50 denotes the concentration needed to bring the measured effect to its halfway point.

The record behind these values is US8987195B2 (priority 2012, dated 2015).
